The values below come from patent US20050165053A1, “Substituted4-aryl-3-(3-aryl-1-oxo-2-propenyl)-2(1h)-quinolinones and analogs as activators of caspases and inducers of apoptosis and the use thereof” (Cytovia, Inc., priority 2001, published 2005).

The structures appear in SMILES notation.

For one assay, the system named is T-47D cells. Briefly: Apoptosis in T-47D cells by propidium iodide flow cytometry (sub-diploid DNA content). The class given is cell-based, Human. As to conditions: 5 μM, 48 h, control 3%. On the procedure:
T-47D, a breast cancer cell line, was maintained and harvested as described in Example 22. 5×10^5 cells were treated with 5 μM of 6-bromo-3-[3-(4-nitrophenyl)-1-oxo-2-propenyl]-4-phenyl-2(1H)-quinolinone for 48 h at 37° C. As a control, cells were also incubated with equivalent amount of solvent (DMSO). Cells were harvested at 1,200 rpm and then transferred to 12×75 mm polystyrene tubes. Cells were then resuspended in 500 μl of 1% Na Citrate, 0.1% Triton X-100, 50 μg/ml of propidium iodide and incubated at room temperature for 30 min followed by flow cytometer analysis. All flow cytometry analyses were performed on FACScalibur (Becton Dickinson) using Cell Quest analysis software. The x-axis plotted the amount of fluorescence and the y-axis is plotted the number of cells with the indicated fluorescence. The T-47D control cell population profile is seen in FIG. 1A. The sub-diploid DNA content of cells (FIG. 1B) is increased from 3% to 49% with compound treatment. The sub-diploid amount of DNA is indicative of apoptotic cells which have undergone DNA degradation or fragmentation.

The subject of assay [1] is T-47D. As to the kind of experiment: Inhibition of cell proliferation (GI50), CellTiter 96 AQUEOUS One, T-47D. The format is cell-based. As to conditions: Homo sapiens, T47D, 48 h, read-out: GI50 (dose for 50% inhibition of cell proliferation). The procedure: (§1) T-47D and ZR-75-1 cells were grown and harvested as in Example 22. An aliquot of 90 μl of cells (2.2×10^4 cells/ml) was added to a well of a 96-well microtiter plate containing 10 μl of a 10% DMSO in RPMI-1640 media solution containing 1 nM to 100 μM of 6-bromo-3-[3-(4-nitrophenyl)-1-oxo-2-propenyl]-4-phenyl-2(1H)-quinolinone (0.1 nM to 10 μM final). An aliquot of 90 μl of cells was added to a well of a 96-well microtiter plate containing 10 μl of a 10% DMSO in RPMI-1640 media solution without compound as the control sample for maximal cell proliferation (AMax). The samples were mixed by agitation and then incubated at 37° C. for 48 h in a 5% CO2-95% humidity incubator. After incubation, the samples were removed from the incubator and 20 μL of CellTiter 96 AQUEOUS One Solution Cell Proliferation™ reagent (Promega) was added. The samples were mixed by agitation and incubated at 37° C. for 2-4 h in a 5% CO2-95% humidity incubator. Using an absorbance plate reader (Model 1420 Wallac Instruments), an initial reading (T=0) was made approximately 1-2 min after addition of the solution, employing absorbance at 490 nm. This determines the possible background absorbance of the test compounds. No absorbance for 6-bromo-3-[3-(4-nitrophenyl)-1-oxo-2-propenyl]-4-phenyl-2(1H)-quinolinone was found at 490 nm. After the 2-4 h incubation, the samples were read for absorbance as above (ATest). […]

Assay [2] deals with ZR-75-1. Briefly: Caspase cascade activation assay in ZR-75-1 cells (N-(Ac-DEVD)-N'-ethoxycarbonyl-R110 fluorogenic substrate). The class given is cell-based, Human. As to conditions: ZR-75-1, 24 h incubation; for EC50: Homo sapiens, read-out: Caspase potency EC50; for Caspase activity Ratio (net RFU of test compound to control): 0.016 to 10 μM final. On the procedure:
(§2) Human breast cancer cell lines T-47D and ZR-75-1 were grown according to media component mixtures designated by American Type Culture Collection+10% FCS (Life Technologies Division of Invitrogen Corporation), in a 5% CO2-95% humidity incubator at 37° C. T-47D and ZR-75-1 cells were maintained at a cell density between 50 and 80% confluency at a cell density of 0.1 to 0.6×10^6 cells/ml. Cells were harvested at 600×g and resuspended at 0.65×10^6 cells/ml into appropriate media+10% FCS. An aliquot of 45 μl of cells was added to a well of a 96-well microtiter plate containing 2.5 μl of a 10% DMSO in RPMI-1640 media solution containing 0.16 to 100 μM of 6-bromo-3-[3-(4-nitrophenyl)-1-oxo-2-propenyl]-4-phenyl-2(1H)-quinolinone or other test compound (0.016 to 10 μM final). An aliquot of 22.5 μl of cells was added to a well of a 384-well microtiter plate containing 2.5 μl of a 10% DMSO in RPMI-1640 media solution without test compound as the control sample. The samples were mixed by agitation and then incubated at 37° C. for 24 h in a 5% CO2-95% humidity incubator. After incubation, the samples were removed from the incubator and 25 μl of a solution containing 14 μM of N-(Ac-DEVD)-N′-ethoxycarbonyl-R110 (SEQ ID No.: 1) fluorogenic substrate (Cytovia, Inc.; WO99/18856), 20% sucrose (Sigma), 20 mM DTT (Sigma), 200 mM NaCl (Sigma), 40 mM Na PIPES buffer pH 7.2 (Sigma), and 500 μg/ml lysolecithin (Calbiochem) was added. The samples were mixed by agitation and incubated at room temperature. Using a fluorescent plate reader (Model SpectraMax Gemini, Molecular Devices), an initial reading (T=0) was made approximately 1-2 min after addition of the substrate solution, employing excitation at 485 nm and emission at 530 nm, to determine the background fluorescence of the control sample. After the 3 h incubation, the samples were read for fluorescence as above (T=3 h).
(§3) The Relative Fluorescence Unit values (RFU) were used to calculate the sample readings as follows: RFU(T=3h)−Control RFU(T=0)=Net RFU(T=3h)
(§4) The activity of caspase cascade activation was determined by the ratio of the net RFU value for 6-bromo-3-[3-(4-nitrophenyl)-1-oxo-2-propenyl]-4-phenyl-2(1H)-quinolinone or other test compound to that of control samples. The EC50 (nM) was determined by a sigmoidal dose-response calculation (Prism 2.0, GraphPad Software Inc.).

Assay [3] has as its system ZR-75-1. Briefly: Inhibition of cell proliferation (GI50), CellTiter 96 AQUEOUS One, ZR-75-1. The format is cell-based. As to conditions: Homo sapiens, ZR-75-1, 48 h; read-out: GI50 (dose for 50% inhibition of cell proliferation). The procedure: as §1
Assay [4] concerns T-47D. As to the kind of experiment: Caspase cascade activation assay in T-47D cells (N-(Ac-DEVD)-N'-ethoxycarbonyl-R110 fluorogenic substrate). The class given is cell-based, Human. As to conditions: 24 h incubation; for Caspase activity Ratio (net RFU of test compound to control): 0.016 to 10 μM final; for EC50: Homo sapiens, T47D, read-out: Caspase potency EC50. On the procedure:
as §2, §3, §4

Assay [5] concerns the target T1, protein tyrosine phosphatase 1B (PTP1B) (Homo sapiens, UniProt P18031).
T1 sequence (P18031 1-435): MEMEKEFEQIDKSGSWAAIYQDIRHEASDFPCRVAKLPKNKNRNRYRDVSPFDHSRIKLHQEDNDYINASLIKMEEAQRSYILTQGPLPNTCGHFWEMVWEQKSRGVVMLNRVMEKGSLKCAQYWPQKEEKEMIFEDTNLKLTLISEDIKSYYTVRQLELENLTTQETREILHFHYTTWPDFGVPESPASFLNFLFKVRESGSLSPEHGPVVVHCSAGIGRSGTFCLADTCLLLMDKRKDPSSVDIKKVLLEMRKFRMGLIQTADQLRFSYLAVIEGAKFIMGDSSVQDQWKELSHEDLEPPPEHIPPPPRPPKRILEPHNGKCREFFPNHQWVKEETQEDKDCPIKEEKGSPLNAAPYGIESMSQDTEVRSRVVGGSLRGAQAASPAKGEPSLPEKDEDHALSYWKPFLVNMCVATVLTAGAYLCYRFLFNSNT
As to conditions: read-out: Ki5; cited from earlier work.

As to `O=C(C=Cc1ccc([N+](=O)[O-])cc1)c1c(-c2ccccc2)c2cc(Br)ccc2[nH]c1=O` [Compound A, 6-bromo-3-[3-(4-nitrophenyl)-1-oxo-2-propenyl]-4-phenyl-2(1H)-quinolinone], the “sub-diploid DNA content of cells (M1)” value with T-47D cells is 49%. Besides, the GI50 with T-47D [1] and in the assay with ZR-75-1 [3] was 0.5 µM in each case. The EC50 is 3.3 µM with ZR-75-1 [2] and 1.9 µM in the assay with T-47D [4]. Further, the “Caspase activity Ratio (net RFU of test compound to control)” value (“Caspase activity Ratio” for short) was found to be 12.4 in the assay with ZR-75-1 [2] and 8.7 in the assay on T-47D [4].
On to `O=C(C=Cc1cccc([N+](=O)[O-])c1)c1c(-c2ccccc2)c2cc(Br)ccc2[nH]c1=O` [Compound B, 6-bromo-3-[3-(3-nitrophenyl)-1-oxo-2-propenyl]-4-phenyl-2(1H)-quinolinone], for which, in the assay on ZR-75-1 [2], the EC50 was found to be 1.8 µM and the “Caspase activity Ratio” value came out at 12.1. In the assay with T-47D [4], the “Caspase activity Ratio” value is given as 10.6 and the EC50 was found to be 0.849 µM.
Consider `O=C(/C=C/c1cccc([N+](=O)[O-])c1)c1c(-c2ccccc2)c2ccc([N+](=O)[O-])cc2[nH]c1=O` [7-Nitro-3-[3-(3-nitrophenyl)-acryloyl]-4-phenyl-1H-quinolin-2-one], for which the Ki in assay [5] is 54 µM.
